Results taken from paper PMC7939532 (Oncotarget, 2021).
Where “and” joins values, the source holds several entries; their conditions need not be identical. Equal entries are not always repeated. Where two headings read alike, the source gives them in different places. Square brackets hold non-standard residues; d marks the D form. Primed or numbered codes have the meaning given here. Ends that are not written are not given here. Peptide text beside a SMILES is read from it. * marks the point of attachment. d1Nal = N[C@H](Cc1cccc2ccccc12)C(=O)O; Palmitoyl = CCCCCCCCCCCCCCCC(=O)*; PEG2′ = not defined here

Legend:
Ghrelin receptor [1] = target: T1, Ghrelin receptor (Homo sapiens, UniProt Q92847); assay: Inositol phosphate turnover assay in COS-7 cells transfected with the Ghrelin receptor; conditions: for x-fold over No. 2: EC50 relative to peptide 2; for Δeff (%): efficacy, mean ± SEM of |Efficacymax - Efficacymin|
Method: Data were analyzed with GraphPad Prism 6.0 program (GraphPad Software, San Diego, CA, USA). EC50, pEC50 and Emax values were obtained from concentration–response curves. All signal transduction assays were performed in duplicate and repeated at least two times independently.

Ghrelin receptor [2] = target: T1, Ghrelin receptor; assay: Competitive binding assay with ^125I-His-Ghrelin in COS-7 cells stably transfected with the Ghrelin receptor; parameters: expressed in transfected cells; host or cells: COS-7; conditions: for x-fold over Ghrelin: Ki relative to Ghrelin; for x-fold over 2: Ki relative to peptide 2; for Ki: competition with ^125I-His-Ghrelin, read-out: Ki ± SD
Method: Each experiment was performed in triplicates. IC50 values of the binding curves were calculated by nonlinear regression on a sigmoidal dose-response based model by using program GraphPad Prism 6.0. Ki values were calculated by Cheng-Prusoff equation.

DU-145 tumors [3] = assay: Biodistribution of 10c in DU-145 tumor bearing mice with blocking; assay type: in vivo; conditions: one hour after injection
Method: (§1) The tumor mice with xenotransplanted PC-3 or DU-145 tumors were used when the tumors reached 0.54 ± 0.34 g or 0.18 ± 0.09 g (mean ± SD, n = 9), respectively. […] The mice were sacrificed one hour after injection and the organs and tissues were extracted. The activity measurements and calculations were carried out as described for the rat biodistribution experiments.

[4] = parameters: species or system mice; conditions: mouse, in vivo
Method: as §1

[5] = rat, in vivo
Method: Biodistribution in distinct organs and tissues of healthy rats was measured at 5 and 60 min after single intravenous injection of the ^68Ga- or ^64Cu-radiotracers 9b-c, 10b-c, and 15b-c in rats (see ^68Ga-tracers in Figure 3 and ^64Cu-tracers in Figure 4).
The molar activity was approximately 30 GBq × mmol^–1 at the time of injection (Table 3). […] Animals were sacrificed at 5 and 60 min post injection. Blood and the major organs were collected, weighed, and counted in a Wallac WIZARD automatic gamma counter (PerkinElmer, Germany). The radioactivity of the samples was decay-corrected and calibrated by comparing the counts in tissue with the counts in aliquots of the injected radiotracer that had been measured in the gamma counter at the same time. The activity amount in organs that could be completely extracted was expressed as percent of injected dose (% ID). The activity concentrations in tissues were calculated as standardized uptake values [SUV = (activity × mL^–1 tissue)/(injected activity/body weight), mL × g^–1)]. The SUV was used for better comparison within animals of different size and weight and with other species and to compare the biodistribution and the PET data.

PC-3 tumors [6] = assay: Biodistribution of 10c in PC-3 tumor bearing mice with blocking; assay type: in vivo; conditions: one hour after injection
Method: as §1

PC-3 tumors [7] = tested on: PC-3 tumors; parameters: species or system mice; conditions: mouse, in vivo
Method: (§2) Anesthetized, spontaneously breathing animals were allowed to stabilize for 10 min after preparation. The animals were positioned on a heated bed to maintain the body temperature at 37°C. The PET studies were carried out with a NanoScanPET/CT (Mediso, Hungary) or a microPET P4® (Siemens preclinical solutions, Knoxville, TN, USA). The activity of the injection solution was measured in a well counter (Isomed 2000, Dresden, Germany) cross-calibrated to the PET scanners. A 10 min transmission scan was recorded during this time for each subject by using a rotating point source of ^57Co (microPET). The transmission scans were used to correct the emission scan for γ-ray attenuation caused by body tissues and supporting structures; it was also used to demarcate the body field for image registration. […] At the end of the experiment, the animals were deeply anesthetized and sacrificed by an intravenous injection of potassium chloride. Acquisition was performed in 3D list mode. Emission data were collected continuously. The list mode data were sorted into sinograms with 32 or 38 frames (15 × 10 s, 5 × 30 s, 5 × 60 s, 4 × 300 s, 3 × 600 s, or 9 × 600 s). The data were decay-, scatter-, and attenuation-corrected. The frames from the microPET were reconstructed by Ordered Subset Expectation Maximization applied to 3D sinograms (OSEM3D) with 14 subsets, 15 OSEM3D iterations, 25 maximum a posteriori (MAP) iterations, and 1.8 mm resolution using the […] algorithm (Siemens Preclinical Solutions, Knoxville, TN, USA). The voxel size was 0.07 by 0.07 by 0.12 cm. The PET images measured with the nanoScanPET/CT were reconstructed using a three-dimensional Ordered Subsets Expectation Maximization (3D-OSEM) algorithm (Tera-Tomo, Mediso Ltd., Hungary) into dynamic frames as described and with a voxel size of 0.05 cm. No correction for partial volume effects was applied. The image volume data were converted to Siemens ECAT7 format for further processing and were then analyzed using the ROVER software (ABX GmbH, Radeberg, Germany). Masks for defining three-dimensional regions of interest (ROI) were set and the ROI's were defined by thresholding and ROI time activity curves (TAC) were derived for the subsequent data analysis. […] The ROIs were so determined that no surrounding tissue was included. The ROI data and TAC were further analyzed using R (R is available as Free Software under the terms of the Free Software Foundation's GNU General Public License in source code form) and especially developed program packages (Jörg van den Hoff, Frank Hofheinz, Helmholtz-Zentrum Dresden-Rossendorf, Dresden, Germany).

DU-145 tumors [8] = tested on: DU-145 tumors; parameters: species or system mice; conditions: mouse, in vivo
Method: as §2

[9] = parameters: species or system rats; conditions: rat, in vivo
[10] = inverse agonist potency, COS-7 cells transfected with the Ghrelin receptor
[11] = EC50, inverse agonist potency, COS-7 cells transfected with the Ghrelin receptor
[12] = pEC50 ± SEM, COS-7 cells transfected with the Ghrelin receptor
[13] = COS-7 cells transfected with the Ghrelin receptor

T1 sequence (Q92847 whole entry, species assumed): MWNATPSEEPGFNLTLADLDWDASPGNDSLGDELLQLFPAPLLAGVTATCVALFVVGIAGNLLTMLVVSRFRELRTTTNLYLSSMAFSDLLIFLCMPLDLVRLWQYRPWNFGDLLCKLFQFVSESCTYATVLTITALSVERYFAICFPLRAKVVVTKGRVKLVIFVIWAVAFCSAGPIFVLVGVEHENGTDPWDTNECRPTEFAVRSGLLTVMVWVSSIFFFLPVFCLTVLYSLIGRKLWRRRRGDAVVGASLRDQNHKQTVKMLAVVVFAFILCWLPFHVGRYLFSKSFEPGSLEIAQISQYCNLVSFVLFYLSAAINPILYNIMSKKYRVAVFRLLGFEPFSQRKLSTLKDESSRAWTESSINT

Molecule | x-fold over No. 2 (Ghrelin receptor [1]) | EC50 (Ghrelin receptor [1]; [10]) | Δeff (%) (Ghrelin receptor [1]) | pEC50 ± SEM (Ghrelin receptor [1]; [13]) | also measured
PEG2-K[^natGa]Ga-NODAGA-K-(D-1-Nal)-FwLL-NH2 [14a] | > 1000 | > 1000 nM | – | – | EC50 (Ghrelin receptor [1]; value given in the text): 1800 ± 600 nM
CC(C)C[C@H](NC(=O)[C@@H](Cc1c[nH]c2ccccc12)NC(=O)[C@H](Cc1ccccc1)NC(=O)[C@@H](Cc1cccc2ccccc12)NC(=O)[C@@H](N)CCCCN)C(=O)N[C@@H](CCCCN)C(N)=O [compound 3, K-(D-1-Nal)-FwLK-NH2] (H-K[d1Nal]F[dW]LK-NH2) | – | – | 42% and 42 ± 1% | – | EC50 (Ghrelin receptor [1]; [11]): 162 nM; EC50 (Ghrelin receptor [1]; [12]): 158 nM
[^natGa]Ga-NODAGA-K(Palm)-K-(D-1-Nal)-FwLL-NH2 [12a] | 5 | 20.3 nM | 92% and 92 ± 4% | 7.7 ± 0.06 | x-fold over Ghrelin (Ghrelin receptor [2]): 126; x-fold over 2 (Ghrelin receptor [2]): 14; Ki (Ghrelin receptor [2]): 66.9 ± 25.7 nM
K(Palm)-K-(D-1-Nal)-FwLK[^natGa]Ga-NODAGA-NH2 [18a] | 59 | 267 nM | 75 ± 6% | 6.6 ± 0.10 | –
[^natGa]Ga-NODAGA-KK-(D-1-Nal)-FwLK(Palm)-NH2 [15a] | 4 | 16.5 nM | 89 ± 3% | 7.8 ± 0.05 | x-fold over Ghrelin (Ghrelin receptor [2]): 21; x-fold over 2 (Ghrelin receptor [2]): 2; Ki (Ghrelin receptor [2]): 11 ± 4.3 nM
PEG2-KK-(D-1-Nal)-FwLL-NH2 [compound 8] | 111 | 499 nM | 85 ± 3% | 6.3 ± 0.08 | –
[^natGa]Ga-NODAGA-KK-(D-1-Nal)-FwLL-NH2 [10a] | 8 | 34.7 nM | 98% and 98 ± 4% | 7.5 ± 0.07 | x-fold over Ghrelin (Ghrelin receptor [2]): 57; x-fold over 2 (Ghrelin receptor [2]): 6; Ki (Ghrelin receptor [2]): 30.3 ± 7.5 nM
[^64Cu]Cu-NODAGA-NH-K-K-(D-1-NaI)-F-w-L-L-NH2 [10c] | – | – | – | – | tumor to muscle ratio as percent of control (DU-145 tumors [3]; blocked with 1 mg/kg Ghrelin): 71.0 ± 10.7%; tumor to muscle ratio as percent of control (DU-145 tumors [3]; blocked with 1 mg/kg KKD): 59.7 ± 30.2%; specific tumor uptake relative to the compound of Charron et al. [4]: approximately 10 times; uptake in organs and tissues [4]: > 0.3 SUV; brain uptake [5]: 0.06-0.1 SUV; tumor to muscle ratio as percent of control (PC-3 tumors [6]; blocked with 1 mg/kg Ghrelin): 83.4 ± 18.4%; tumor to muscle ratio as percent of control (PC-3 tumors [6]; blocked with 1 mg/kg KKD): 51.2 ± 4.5%; activity concentration in tumor (PC-3 tumors [7]): 2.02 ± 0.28 SUV; activity concentration in tumor (PC-3 tumors [7]; 1 mg/kg): 0.99 ± 0.05 SUV; activity concentration in tumor (DU-145 tumors [8]): 1.34 ± 0.24 SUV; activity concentration in tumor (DU-145 tumors [8]; 1 mg/kg): 0.68 ± 0.05 SUV; original compound found in the kidneys [9]: 1%; original compound found in the liver [9]: 14%; original compound found in the urine [9]: 6%
Palm-K[^natGa]Ga-NODAGA-K-(D-1-Nal)-FwLL-NH2 [13a] | 6 | 28.7 nM | 92% and 92 ± 3% | 7.5 ± 0.06 | –
CCCCCCCCCCCCCCCC(=O)NCCCC[C@H](NC(=O)[C@H](CC(C)C)NC(=O)[C@@H](Cc1c[nH]c2ccccc12)NC(=O)[C@H](Cc1ccccc1)NC(=O)[C@@H](Cc1cccc2ccccc12)NC(=O)[C@@H](N)CCCCN)C(N)=O [compound 5] (H-K[d1Nal]F[dW]LK(Palmitoyl)-NH2) | – | – | 85% and 85 ± 2% | – | EC50 (Ghrelin receptor [1]; [11]): 3.5 nM; EC50 (Ghrelin receptor [1]; [12]): 3.16 nM
CCCCCCCCCCCCCCCC(=O)N[C@@H](CCCCN)C(=O)N[C@@H](CCCCN)C(=O)N[C@H](Cc1cccc2ccccc12)C(=O)N[C@@H](Cc1ccccc1)C(=O)N[C@H](Cc1c[nH]c2ccccc12)C(=O)N[C@@H](CC(C)C)C(=O)N[C@@H](CC(C)C)C(N)=O [compound 6, Palm-KK-(D-1-Nal)-FwLL-NH2] (Palmitoyl-KK[d1Nal]F[dW]LL-NH2) | 2 | – | 86 ± 2% | – | EC50 (Ghrelin receptor [1]; [11]): 11 nM
K-(D-1-Nal)-FwLK(PEG2)-NH2 [compound 7] | 37 | – | 61 ± 3% | – | –
[^natGa]Ga-NODAGA-K-(D-1-Nal)-FwLL-NH2 [9a] | 14 | 64.8 nM | 88% and 88 ± 8% | 7.2 ± 0.10 | –
Palm-KK-(D-1-Nal)-FwLK[^natGa]Ga-NODAGA-NH2 [17a] | 132 | 592 nM | 85 ± 6% | 6.2 ± 0.10 | –
K[^natGa]Ga-NODAGA-K-(D-1-Nal)-FwLK(Palm)-NH2 [16a] | 3 | 13.6 nM | 90 ± 4% | 7.9 ± 0.07 | –
CC(C)C[C@H](NC(=O)[C@H](CC(C)C)NC(=O)[C@@H](Cc1c[nH]c2ccccc12)NC(=O)[C@H](Cc1ccccc1)NC(=O)[C@@H](Cc1cccc2ccccc12)NC(=O)[C@H](CCCCN)NC(=O)[C@@H](N)CCCCN)C(N)=O [compound 4, KK-(D-1-Nal)-FwLL-NH2] (H-KK[d1Nal]F[dW]LL-NH2) | – | – | 63% and 63 ± 2% | – | EC50 (Ghrelin receptor [1]; [11]): 13 nM; EC50 (Ghrelin receptor [1]; [12]): 12.6 nM
K-(D-1-Nal)-FwLK(PEG2)-NH2 (K[d1Nal]F[dW]LK(PEG2′)-NH2) [compound 7] | – | 166 nM | – | 6.8 ± 0.10 | –
